System: Vero Cells
Assay: MTT assay, cytotoxicity of the test compounds
Assay type: cell-based
Conditions: not tested for inhibitory effect

O=c1ccn([C@@H]2O[C@H](COCc3ccccc3)[C@H](OCc3ccccc3)[C@H](OCc3ccccc3)[C@H]2I)c(=O)[nH]1 [3h]
cytotoxicity (in words): cytotoxic

From article PMC12285759 (RSC Advances, 2025)
